molecular target: T1, TLR7 (Homo sapiens, UniProt Q9NYK1); test: huPBMC TLR7 Antagonist IFNα Assay; assay type: cell-based; conditions: human PBMCs stimulated with ssRNA40 10 μg/mL (DOTAP), 14-16 hrs; IFNα2b AlphaLISA read-out
T1 construct: Fresh blood was collected from normal human donors; endogenous in cells; host or cells: human PBMCs from fresh donor blood
T1 sequence (Q9NYK1 27-1049): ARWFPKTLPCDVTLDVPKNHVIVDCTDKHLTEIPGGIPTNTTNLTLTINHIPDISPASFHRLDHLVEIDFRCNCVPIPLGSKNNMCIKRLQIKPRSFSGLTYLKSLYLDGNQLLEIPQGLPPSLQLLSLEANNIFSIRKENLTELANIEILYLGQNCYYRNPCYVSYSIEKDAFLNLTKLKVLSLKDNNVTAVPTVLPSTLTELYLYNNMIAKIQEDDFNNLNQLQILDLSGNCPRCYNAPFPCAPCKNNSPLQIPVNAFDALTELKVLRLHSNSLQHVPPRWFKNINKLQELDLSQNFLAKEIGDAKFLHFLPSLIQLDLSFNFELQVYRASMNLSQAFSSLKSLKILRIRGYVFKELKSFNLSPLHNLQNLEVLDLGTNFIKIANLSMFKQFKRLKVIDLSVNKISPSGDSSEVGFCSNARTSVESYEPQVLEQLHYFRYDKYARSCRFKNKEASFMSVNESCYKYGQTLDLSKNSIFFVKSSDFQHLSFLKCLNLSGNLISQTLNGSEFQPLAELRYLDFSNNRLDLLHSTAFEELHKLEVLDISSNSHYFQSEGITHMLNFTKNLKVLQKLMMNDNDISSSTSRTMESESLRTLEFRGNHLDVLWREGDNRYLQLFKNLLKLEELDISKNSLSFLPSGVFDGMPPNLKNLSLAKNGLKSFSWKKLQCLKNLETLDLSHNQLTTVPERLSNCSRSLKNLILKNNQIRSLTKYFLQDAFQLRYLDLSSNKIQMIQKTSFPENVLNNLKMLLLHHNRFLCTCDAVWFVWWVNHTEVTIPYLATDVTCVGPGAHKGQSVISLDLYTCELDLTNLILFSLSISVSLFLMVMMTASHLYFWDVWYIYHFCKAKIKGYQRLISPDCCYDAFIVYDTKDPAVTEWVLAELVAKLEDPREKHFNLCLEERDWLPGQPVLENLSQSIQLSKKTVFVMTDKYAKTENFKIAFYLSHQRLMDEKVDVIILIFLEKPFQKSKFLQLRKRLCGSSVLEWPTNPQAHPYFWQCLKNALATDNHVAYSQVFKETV
Description: Compounds were generally serially diluted (1/3) in DMSO and plated on sterile 384 well tissue culture plates and stored until ready for use. Each ten-point dilution was typically plated in triplicate in parallel rows.
Fresh blood was collected from normal human donors underwritten informed consent in heparinized syringes on the morning of the assay. The blood was diluted in RPMI-1640 medium and the white blood cells were separated from red blood cells by centrifugation (800 g 15′ 0 acceleration, 0 brake) on a Ficoll cushion. Peripheral blood mononuclear cells (PBMCs) were separated from platelets by a series of low-speed centrifugations (1000RPM 10′) in PBS+5% HI—FBS and 1 mM EDTA. Purified PBMCs were re-suspended in assay medium (RPMI-1640 w Glutamax (Invitrogen) supplemented with 5% HI—FBS, 10 mM HEPES, 50 uM β-mercaptoethanol, and 100 mG/L penicillin/streptomycin cocktail). Viable PBMCs were counted on a hemacytometer and kept on ice until ready for plating.
A 4× concentration (4 ug/ml or 40 ug/ml for TLR8 or TLR7 assays, respectively) of the TLR7/8 agonist ssRNA40 (IDT) was complexed with 10% DOTAP (Roche) in assay medium for 30 min prior to addition to the PBMC suspension (5 million cells/ml). After addition, the final concentration of ssRNA40 in the TLR7/8 stimulated PBMC suspension was 1 μg/ml for TLR8 assay, and 10 μg/mL for the TLR7 assay. The final DOTAP concentration was 2.5%. Diluted PBMCs (5 million cells/ml) were treated with 4×TLR9 agonist ODN2216 (Invivogen). Final concentration of ODN2216 in TLR9 stimulated PBMC suspension was 0.3 μM.
Agonist stimulated PBMCs were plated on the compound treated 384 well plates at 150,000 cells/well. Un-stimulated PBMCs were plated as controls on each plate. Plating volume was 40 μL per well. DMSO concentration in each well was 0.25%.
A separate plate, without compounds, with titrations of ssRNA40 and ODN2216 was included in every assay to measure agonist response of each donor's PBMC prep. Assay plates were placed in a tissue culture incubator (37° C., 5% CO2) for 14-16 hrs. After this incubation, the plates were centrifuged and stored at −20° C. until they were assayed.
IL-6 TR-FRET Assay for TLR8 activity: • 1) Cisbio Human IL-6 kit, 20,000 tests (62TNFPEC), and GNF High-Base TC 384 well plates (cat #789163G) were used; • 2) the Anti-TIL-6 Cryptate conjugate and the Anti-IL-6 XL665 conjugate were diluted 1:20 in Reconstitution Buffer; • 3) a 1:1 mixture of 3 μl/well Anti-IL-6 Cryptate conjugate and 3 μl/well Anti-IL-6 XL665 conjugate was prepared; • 4) 6 μl/well HTRF dilution mastermix was added to 6 μl of transferred supernatant samples in proxiplates; • 5) The plates were incubated for 3 hrs at rt in the dark; and • 6) the levels of IL-6 production was measured using an Envision plate reader (665 nm (emmission)/590 nm (excitation)) with HTRF settings and ratiometric read-out: (XL665 emission/Eu Cryptate emission)×10,000. IFNα2b AlphaLISA Assay for TLR7 or TLR9 activity After thawing the assay plates, 6 μL of supernatant samples were transferred to a low-volume AlphaPlate 384SW (Perkin-Elmer). The concentration of IFNα in supernatants was measured using the IFNα2b AlphaLISA Assay (Perkin-Elmer: AL297F). 3 μL of IFNα acceptor beads/biotinylated antibody solution was added first, using laboratory automation. After an hour incubation, […] of streptavidin […] bead solution was added. The plates containing this mixture were incubated in the dark for an hour and read on an appropriate plate reader at reading parameters set by the manufacturer. (Envision, EnSpire: Perkin-Elmer).

| SMILES | IC50 |
| --- | --- |
| Cc1cc(N2CCc3c(c(C)nn3CC34CCC(NC5COC5)(CC3)CC4)C2)c2cnn(C)c2n1 [Compound No. 6, N-(4-((5-(1,6-dimethyl-1H-pyrazolo[3,4-b]pyridin-4-yl)-3-methyl-4,5,6,7-tetrahydro-1H-pyrazolo[4,3-c]pyridin-1-yl)methyl)bicyclo[2.2.2]octan-1-yl)oxetan-3-amine] | 19 nM |
| Cc1cc(N2CCc3c(c(C)nn3CC34CCC(NC(=O)[C@@H]5COCCN5)(CC3)CC4)C2)c2cnn(C)c2n1 [Compound No. 8, (S)—N-(4-((5-(1,6-dimethyl-1H-pyrazolo[3,4-b]pyridin-4-yl)-3-methyl-4,5,6,7-tetrahydro-1H-pyrazolo[4,3-c]pyridin-1-yl)methyl)bicyclo[2.2.2]octan-1-yl)morpholine-3-carboxamide] | 4 nM |
| Cc1cc(N2CCc3c(c(C)nn3CC34CCC(NC(=O)[C@H]5COCCN5)(CC3)CC4)C2)c2cnn(C)c2n1 [Compound No. 9, (R)—N-(4-((5-(1,6-dimethyl-1H-pyrazolo[3,4-b]pyridin-4-yl)-3-methyl-4,5,6,7-tetrahydro-1H-pyrazolo[4,3-c]pyridin-1-yl)methyl)bicyclo[2.2.2]octan-1-yl)morpholine-3-carboxamide] | 15 nM |
| Cc1nc(N2CCc3c(c(C)nn3CC34CCC(N)(CC3)CC4)C2)c2c(n1)c(C)nn2C [Compound No. 26, 4-((3-methyl-5-(1,3,5-trimethyl-1H-pyrazolo[4,3-d]pyrimidin-7-yl)-4,5,6,7-tetrahydro-1H-pyrazolo[4,3-c]pyridin-1-yl)methyl)bicyclo[2.2.2]octan-1-amine] | 644 nM |
| Cc1cc(N2CCc3c(c(C)nn3CC34CCC(N(C)C)(CC3)CC4)C2)c2cnn(C)c2n1 [Compound No. 43, 4-((5-(1,6-dimethyl-1H-pyrazolo[3,4-b]pyridin-4-yl)-3-methyl-4,5,6,7-tetrahydro-1H-pyrazolo[4,3-c]pyridin-1-yl)methyl)-N,N-dimethylbicyclo[2.2.2]octan-1-amine] | 16 nM |
| Cc1cc(N2CCc3c(c(C)nn3CC34CCC(N5CCN(C)CC5=O)(CC3)CC4)C2)c2cnn(C)c2n1 [Compound No. 108, 1-(4-((5-(1,6-dimethyl-1H-pyrazolo[3,4-b]pyridin-4-yl)-3-methyl-4,5,6,7-tetrahydro-1H-pyrazolo[4,3-c]pyridin-1-yl)methyl)bicyclo[2.2.2]octan-1-yl)-4-methylpiperazin-2-one] | 21 nM |
| Cc1cc(N2CCc3c(c(C)nn3CC34CCC(n5ccnc5)(CC3)CC4)C2)c2cnn(C)c2n1 [Compound No. 119, 1-((4-(1H-imidazol-1-yl)bicyclo[2.2.2]octan-1-yl)methyl)-5-(1,6-dimethyl-1H-pyrazolo[3,4-b]pyridin-4-yl)-3-methyl-4,5,6,7-tetrahydro-1H-pyrazolo[4,3-c]pyridine] | 6 nM |

Continued by falling IC50, values first:

| IC50 | SMILES |
| --- | --- |
| 61 nM | Cc1cc(N2CCc3c(c(C)nn3CC34CCC(N5CCN(C)C(=O)C5)(CC3)CC4)C2)c2cnn(C)c2n1 [Compound No. 104, 4-(4-((5-(1,6-dimethyl-1H-pyrazolo[3,4-b]pyridin-4-yl)-3-methyl-4,5,6,7-tetrahydro-1H-pyrazolo[4,3-c]pyridin-1-yl)methyl)bicyclo[2.2.2]octan-1-yl)-1-methylpiperazin-2-one] |
| 56 nM | Cc1nc(N2CCc3c(c(C)nn3CC34CCC(N5CC6(COC6)C5)(CC3)CC4)C2)c2c(n1)c(C)nn2C [Compound No. 10, 6-(4-((3-methyl-5-(1,3,5-trimethyl-1H-pyrazolo[4,3-d]pyrimidin-7-yl)-4,5,6,7-tetrahydro-1H-pyrazolo[4,3-c]pyridin-1-yl)methyl)bicyclo[2.2.2]octan-1-yl)-2-oxa-6-azaspiro[3.3]heptane] |
| 54 nM | Cc1cc(N2CCc3c(c(C)nn3CC34CCC(N)(CC3)CC4)C2)c2ccncc2n1 [Compound No. 3, 4-((3-methyl-5-(2-methyl-1,7-naphthyridin-4-yl)-4,5,6,7-tetrahydro-1H-pyrazolo[4,3-c]pyridin-1-yl)methyl)bicyclo[2.2.2]octan-1-amine] |

Reference: patent US20240376099A1, “COMPOUNDS AND COMPOSITIONS AS INHIBITORS OF ENDOSOMAL TOLL-LIKE RECEPTORS” (Novartis AG, priority 2016, published 2024)
